Source: patent publication US11744844B2, “Selective estrogen receptor degraders” (Eli Lilly and Company, priority 2021, dated 2023)
Structures can show the parent of a compound that is named as a salt.

Key:
[1] = tested on: MCF7 ESR1 wild type cells; assay: Cell proliferation assay in MCF7; assay type: cell-based; settings: Homo sapiens, 168 h, seven days, read-out: Relative IC50 MCF7 ESR1 wild type, cell proliferation
Method: The purpose of the following cell proliferation assays generally is to detect whether a test compound has effects on cell proliferation.
Seed MCF7 (purchased from ATCC HTB-22) cells at a density of 2,000 cells per well in DMEM phenol red free media 10% FBS (20 μL volume) (charcoal stripped) into a clear bottom 384-well cell culture plate. Plate MCF7-ESRY537N-682 (generated by CRISPR/Cas9 gene editing of ESr1 gene in MCF7 cells, clone #682) in DMEM media supplemented with 10% FBS, and 1% penicillin/streptomycin antibiotics at a density of 1000 cells per well. Incubate the plates at 37° C. and 5% CO2. The following day dose the cells with the test compound. Use an Echo 555 acoustic dispenser to prepare test compound serial dilutions (1:3) in a range from 60 μM to 0.003 μM. Dose the cells with the addition of 5 μL from the serial dilution plate to the cell plate, producing a final DMSO concentration of 0.2% with a final test compound concentration dose range between 20 and 0.001 μM. For the maximum point use media containing 0.2% of DMSO and for the minimum point use fulvestrant diluted at 2 μM final concentrations in the growth media containing 0.2% DMSO. After dosing with the test compound, incubate the cell plates at 37° C. and 5% CO2. […] Scan the plates with ACUMEN EXPLORER™ (Laser-scanning fluorescence microplate cytometer manufactured by TTP LABTECH LTD).

ERα = target: T1, ERα (Homo sapiens, UniProt P03372); assay: ERα degradation assay in MCF7 cells; assay type: cell-based; settings: 24 hours incubation, read-out: Relative IC50, ERα degradation (% ER positive cells)
T1 construct: measure the degradation of ERα by a test compound in an ERα positive breast cancer cell line such as MCF7; host or cells: MCF7
T1 sequence (P03372 1-595): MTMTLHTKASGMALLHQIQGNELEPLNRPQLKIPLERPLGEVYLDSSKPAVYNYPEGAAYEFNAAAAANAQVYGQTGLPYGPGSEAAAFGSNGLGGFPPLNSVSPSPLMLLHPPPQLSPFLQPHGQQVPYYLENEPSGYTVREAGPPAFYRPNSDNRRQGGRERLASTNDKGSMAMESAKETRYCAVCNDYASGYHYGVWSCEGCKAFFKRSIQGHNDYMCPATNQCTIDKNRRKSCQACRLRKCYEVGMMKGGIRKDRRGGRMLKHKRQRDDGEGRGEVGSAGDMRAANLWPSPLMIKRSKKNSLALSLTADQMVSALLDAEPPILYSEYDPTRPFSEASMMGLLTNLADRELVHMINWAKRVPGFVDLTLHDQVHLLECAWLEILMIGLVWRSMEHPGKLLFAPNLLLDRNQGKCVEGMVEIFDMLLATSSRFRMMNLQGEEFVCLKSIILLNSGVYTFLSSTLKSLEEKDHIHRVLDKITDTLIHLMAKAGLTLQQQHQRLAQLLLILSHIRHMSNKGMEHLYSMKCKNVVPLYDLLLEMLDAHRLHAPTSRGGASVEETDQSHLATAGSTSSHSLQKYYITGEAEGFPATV
Method: The purpose of the following ERα degradation assay is to measure the degradation of ERα by a test compound in an ERα positive breast cancer cell line such as MCF7.
Culture MCF7 (purchased from ATCC HTB-22) cells in DMEM media supplemented with 10% FBS, 0.01 mg/mL human insulin 1 and 1% penicillin/streptomycin antibiotics and plate in 384-well flat-bottom plates at a density of 4,000 cells per well in phenol red free DMEM media (20 μL) containing 10% charcoal stripped FBS. Incubate the cells overnight in a cell culture incubator (5% CO2, 95% relative humidity and 37° C.) and allow the cells to attach to the plate. The following day dose the cells with the test compound. Use an Echo 555 acoustic dispenser to prepare test compound serial dilutions (1:3) in a range from 6 μM to 0.0003 μM. Dose the cells with the addition of 5 μL from the serial dilution plate to the cell plate producing a final DMSO concentration of 0.2% with a final test compound concentration dose range between 2 and 0.0001 μM. For the maximum point, use media containing 0.2% of DMSO and for the minimum point, use fulvestrant diluted at 2 μM final concentrations in the growth media containing 0.2% DMSO. […] Scan the plates with ACUMEN EXPLORER™ (Laser-scanning fluorescence microplate cytometer manufactured by TTP LABTECH LTD) to measure ERα. […]

## O=S(=O)(O)Oc1ccc2c3c(cnc2c1)-c1ccc(C(F)(F)F)cc1O[C@@H]3c1ccc(OCCN2CC(CF)C2)cc1 [Example 1, [(5R)-5-[4-[2-[3-(Fluoromethyl)azetidin-1-yl]ethoxy]phenyl]-8-(trifluoromethyl)-5H-chromeno[4,3-c]quinolin-2-yl]hydrogen sulfate]
[1]
  IC50: 518 ± 49.9 nM
ERα
  DC50: 115 ± 18.4 nM

## O=C(O)[C@H]1O[C@@H](Oc2ccc3c4c(cnc3c2)-c2ccc(C(F)(F)F)cc2O[C@@H]4c2ccc(OCCN3CC(CF)C3)cc2)[C@H](O)[C@@H](O)[C@@H]1O [Example 2, (2S,3S,4S,5R,6S)-6-[[(5R)-5-[4-[2-[3-(Fluoromethyl)azetidin-1-yl]ethoxy]phenyl]-8-(trifluoromethyl)-5H-chromeno[4,3-c]quinolin-2-yl]oxy]-3,4,5-trihydroxy-tetrahydropyran-2-carboxylic acid]
[1]
  IC50: 550 ± 238 nM
ERα
  DC50: 211 ± 69.2 nM
